These results are taken from US9884063B2, “Amido-substituted azole compounds” (Bayer Pharma Aktiengesellschaft, priority 2014, dated 2018).

In general, IC50 refers to the midpoint of a concentration-inhibition curve. Low values mean greater potency, high ones weaker potency.

The target in this assay is T1, TNKS1 (Homo sapiens, UniProt O95271).
T1 sequence (O95271 1-1327): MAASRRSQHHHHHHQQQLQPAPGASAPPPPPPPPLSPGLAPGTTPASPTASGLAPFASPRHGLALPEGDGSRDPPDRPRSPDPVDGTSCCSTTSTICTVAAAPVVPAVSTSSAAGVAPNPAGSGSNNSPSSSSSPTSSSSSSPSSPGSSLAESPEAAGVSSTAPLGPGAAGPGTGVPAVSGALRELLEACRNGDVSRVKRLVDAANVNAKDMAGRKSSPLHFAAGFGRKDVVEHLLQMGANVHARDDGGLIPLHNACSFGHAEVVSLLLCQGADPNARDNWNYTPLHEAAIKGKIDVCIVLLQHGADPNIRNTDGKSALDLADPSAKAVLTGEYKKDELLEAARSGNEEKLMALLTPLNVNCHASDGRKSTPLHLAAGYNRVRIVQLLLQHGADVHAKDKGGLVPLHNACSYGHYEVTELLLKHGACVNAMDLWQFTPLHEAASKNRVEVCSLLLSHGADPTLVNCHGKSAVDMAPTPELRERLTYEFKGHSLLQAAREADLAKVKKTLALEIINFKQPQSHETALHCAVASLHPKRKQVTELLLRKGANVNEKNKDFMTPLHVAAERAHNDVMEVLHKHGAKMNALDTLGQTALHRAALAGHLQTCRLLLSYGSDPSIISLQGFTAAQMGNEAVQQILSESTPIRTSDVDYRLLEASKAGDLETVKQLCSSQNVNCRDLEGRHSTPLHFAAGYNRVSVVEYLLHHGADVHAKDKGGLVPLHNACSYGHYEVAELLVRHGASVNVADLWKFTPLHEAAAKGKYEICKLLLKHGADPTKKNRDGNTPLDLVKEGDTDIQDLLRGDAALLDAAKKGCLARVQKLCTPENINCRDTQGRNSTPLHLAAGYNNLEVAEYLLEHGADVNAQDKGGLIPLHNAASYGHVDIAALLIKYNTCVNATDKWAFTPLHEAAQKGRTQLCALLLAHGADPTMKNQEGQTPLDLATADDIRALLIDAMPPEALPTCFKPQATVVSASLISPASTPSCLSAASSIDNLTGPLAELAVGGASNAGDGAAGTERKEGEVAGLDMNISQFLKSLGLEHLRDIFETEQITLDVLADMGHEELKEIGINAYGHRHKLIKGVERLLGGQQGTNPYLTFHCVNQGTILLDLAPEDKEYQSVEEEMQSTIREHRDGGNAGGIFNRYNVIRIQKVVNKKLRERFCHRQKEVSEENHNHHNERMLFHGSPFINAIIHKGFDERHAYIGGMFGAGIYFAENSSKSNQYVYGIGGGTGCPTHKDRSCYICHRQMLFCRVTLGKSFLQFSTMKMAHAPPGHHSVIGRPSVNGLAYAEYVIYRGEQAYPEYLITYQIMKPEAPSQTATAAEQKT
As to the kind of experiment: Modified TNKS1 Assay 3 (BPS kit #80573, biotin-NAD+, 96 well). Type of assay: biochemical. To be noted: human TNKS1, BPS kit #80573, 96 well. A digest of the protocol:
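Chemiluminescent assay of TNKS1-catalysed ribosylation of a protein substrate with biotin-labelled NAD+, detected via streptavidin-HRP; run per kit protocol. Inhibition lowers the signal, and IC50 is the compound concentration halving the normalised readout.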

For the compound `O=C(Nc1ccc(NC(=O)c2[nH]cnc2C(=O)NCCN2CCCCC2)cn1)c1ccc(F)cc1Cl` [Example 110, N^5-{6-[(2-chloro-4-fluorobenzoyl)amino]pyridin-3-yl}-N^4-[2-(piperidin-1-yl)ethyl]-1H-imidazole-4,5-dicarboxamide], the IC50 came out at 40 nM.
